From patent publication US20250287930A1, “REGULATION OF IMMUNE RESPONSES THROUGH SELECTIVE NEURAL ACTIVATION” (The Trustees of Columbia University in the City of New York, priority 2024, published 2025)

How the values were obtained:
cNST neurons [1] = experiment: Fos induction in the cNST after intraperitoneal immune stimulation; format: in vivo, mice; conditions: for Fos induction in the cNST: intraperitoneal injection, brains taken 2 h later
Method: (§1) Mice housed in their home cages were injected intraperitoneally with lipopolysaccharide (LPS, 50 μg kg-1, Cell Signaling Technology, #14011), lipoteichoic acid (LTA, 1 mg kg-1 Sigma, #L2512), Flagellin (20 μg kg-1, Sigma Aldrich #SRP8029), Profilin (20 μg kg-1, Sigma Aldrich, #SRP8050), Zymosan (2.5 mg kg-1, Sigma Aldrich #Z4250), IL-10 (100 μg kg-1, BioLegend, #575804), a cocktail of IL-6 (100 μg kg-1, BioLegend #575706), IL-1β (100 μg kg-1, R&D, #401-ML) and TNF-α (100 μg kg-1, R&D, #410-MT), or saline control (0.9% NaCl), then 2 h later, perfused transcardially with PBS followed by 4% paraformaldehyde. Brains were dissected, fixed in 4% PFA overnight at 4° C., and then sliced coronally at 100 μm thickness. The brain sections were permeabilized and blocked with 10% normal donkey serum (EMD Millipore, #S30) in PBS containing 0.3% Triton X-100. Sections were incubated with an anti-Fos primary antibody (SYSY, #226004 guinea pig, diluted 1:5,000) at 4° C. overnight, followed by labeling with a secondary antibody (Alexa Fluor 647-conjugated donkey anti-guinea pig, Jackson ImmunoResearch, #706605148) at room temperature for 2 h. For double RNA in situ hybridization, fixed frozen nodose ganglia or brains were sectioned at 16 μm thickness and processed for mRNA detection using the RNAscope Fluorescent Multiplex Kit (Advanced Cell Diagnostics) following the manufacturer's instructions. The following RNAscope probes were used: Fos (#316921-C2), Dbh (#464621-C1), Trpa1 (#400211-C3) and Calca (#578771-C2), GFP (#400281-C1). Images were acquired using an Olympus FluoView 1000 confocal microscope. Quantification of fluorescent signals was carried out by manually counting the number of positive neurons.

[2] = test system: LPS-activated neurons in the cNST; experiment: Chemogenetic activation of LPS-TRAPed cNST neurons, cytokines; format: in vivo, mice
Method: (§2) All stereotaxic surgery procedures were carried out using aseptic technique. […] The viral constructs were injected into the cNST through a small craniotomy. The injection coordinates (based on Paxinos stereotaxic coordinates) for virus delivery in the cNST were as follows: caudal 7.5 mm, lateral ±0.3 mm, ventral 3.7-4 mm, all relative to Bregma. In chemogenetic experiments, TRAP2, Dbh-cre, Vglut2-cre and Vgat-cre mice received bilateral injections of 200 nl of AAV9-Syn-DIO-hM3Dq (Addgene, #44361-AAV9) and 300 nl of AAV9-Syn-DIO-hM4Di (Addgene, #44362-AAV9) in the cNST. Equivalent volumes of AAV9-Syn-DIO-mCherry (Addgene, #50459-AAV9) were injected as controls. For fiber photometry experiments, Vglut2-cre mice were unilaterally injected with 100 nl of AAV9-Syn-Flex-GCaMP6s (Addgene, #100845-AAV9) in the cNST, and an optical fiber (400 μm core, 0.48 NA, Doric Lenses) was implanted 50-100 μm above the GCaMP virus injection site.
(§3) The TRAP strategy was used in TRAP2 mice to gain genetic access to LPS-activated neurons in the cNST. […]
(§4) When using TRAP2 animals, at least 4 weeks elapsed between TRAPing and CNO treatment. […] Cytokines in the blood were measured using commercially available ELISA kits (R&D), following manufacturer's instructions. […]

vagal sensory neurons = experiment: Vagal calcium imaging of nodose ganglion (GCaMP6s in all vagal sensory neurons); format: in vivo, mice; conditions: for calcium activity in a subset of vagal sensory neurons: intraperitoneal cytokine, nodose ganglion; for number of responding vagal sensory neurons: of 423 imaged vagal sensory neurons, cytokine intraperitoneal
Method: (§5) Calcium imaging of the nodose ganglion was conducted as described previously (Li, M. et al. Nature 610, 722-730, (2022); Tan, H. E. et al. Nature 580, 511-516, (2020)). For imaging in response to intragastric delivery of glucose (or linoleic acid), and IP injections of saline control and cytokines, a typical recording session consisted of: 1st: saline; 2nd: one of the three pro-inflammatory cytokines (TNF-α, IL-1β or IL-6); 3rd: anti-inflammatory cytokine (IL-10); 4th and 5th: two trials with glucose (or linoleic acid); each trial was 5 min. Cytokines were injected 1 min after the onset of the recording. Glucose (500 mM) and linoleic acid (10%) was delivered intragastrically. For all experiments 100 μg kg-1 of each cytokine was used. To deliver cytokines […], a segment of the intestine was placed in a custom-made perfusion chamber while still keeping it connected to the remainder of the gastrointestinal tract (no carbogenation). Each recording session included six interleaved trials, with 2 trials for each stimulus. Trials were 15 mins long, and consisted of a 180-s baseline (saline), a 180-s cytokine or control stimulus, and a 9-min washout (saline) period. The flow rates were maintained at around 600 μl min-1 throughout the experiment to minimize mechanical responses that may occur during the transition between trials. Cytokines were dissolved in saline at the concentration of 1 μg ml-1. During the entire perfusion session, all of the solutions were maintained at 37° C.
Imaging data was acquired exactly as previously described (Li, M. et al. Nature 610, 722-730, (2022); Tan, H. E. et al. Nature 580, 511-516, (2020)). Neuronal activity was analyzed for significant stimulus-evoked responses as described. The baseline distribution of deviations was first computed from the median for each cell throughout the entire experiment using periods prior to the stimulus delivery. Subsequently, this baseline was utilized to derive a modified z-score by subtracting the median and dividing by the median absolute deviation. Trials with an average modified z-score above 1.6 for the 180s (stimuli delivered via IP) or 480s (stimuli delivered via perfusion) following the initiation of stimulation were classified as responding trials (all responders had minimal peak amplitudes of 1% ΔF/F). Z-scores from responders were normalized across stimuli to generate heat maps of normalized fluorescence traces.

DBH neurons in the cNST = experiment: Fos induction in DBH neurons in the cNST by LPS and cytokine stimulation; format: in vivo; conditions: Dbh-cre mice, intraperitoneal injection
Method: as §1, with “For double RNA in situ hybridization, fixed frozen nodose ganglia or brains were sectioned at 16 μm thickness and processed for mRNA detection using the RNAscope Fluorescent Multiplex Kit (Advanced Cell Diagnostics) following the manufacturer's instructions. The following RNAscope probes were used: Fos (#316921-C2), Dbh (#464621-C1), Trpa1 (#400211-C3) and Calca (#578771-C2), GFP (#400281-C1). Images were acquired using an Olympus FluoView 1000 confocal microscope.” left out

cNST neurons [3] = experiment: Fiber photometry of LPS-evoked activity in the cNST (GCaMP6s, Vglut2-cre mice); format: in vivo
Method: as §2
Photometry experiments were conducted at least 14 days after the stereotaxic viral injection and fiber implantation (see the section on stereotaxic surgery for details). Prior to the experiments, mice were acclimated to the recording chamber for 1 h per day over 3 consecutive days. On the 4th and 5th day, mice were recorded for the bulk GCaMP responses to saline and LPS (0.5 mg kg-1), respectively, in a 5 h recording session. Saline and LPS were intraperitoneally injected 15 min after the onset of recording. Real-time population-level GCaMP fluorescence signals were detected, amplified and recorded using a RZ5P fiber photometry system with Synapse software (Tucker Davis Technologies). The collected data were downsampled, detrended and smoothed by custom MATLAB code. The calcium transients were identified as described previously (Barretto, R. P. et al. Nature 517, 373-376, (2015); Rousseeuw, P. J. C., C. J. Am. Stat. Assoc. 88, 1273-1283, (1993); Jin, H., Fishman, Z. H., Ye, M., Wang, L. & Zuker, C. S. Cell 184, 257-271 e216, (2021)) and the area under the curve (AUC) was calculated by integrating fluorescence signal under identified calcium transients. […]

circulating cytokines = experiment: LPS-induced circulating cytokines in peripheral blood by ELISA; format: in vivo, mice
Method: When using TRAP2 animals, at least 4 weeks elapsed between TRAPing and CNO treatment. Two doses (2 mg kg-1 and 1 mg kg-1) of CNO were given intraperitoneally at 12 h and 1 h prior to saline or LPS stimulation. Two hours after the intraperitoneal injection of saline or LPS (0.1 mg kg-1), blood samples were collected from either the submandibular or the tail vein. Cytokines in the blood were measured using commercially available ELISA kits (R&D), following manufacturer's instructions. Saline and LPS experiments were conducted on the same cohort of mice but at least 7 days apart.
To examine LPS-induced cytokine responses over time, wild-type (C56BL/6J) mice were injected IP with saline or LPS, and peripheral blood samples were collected at 0, 2 hours, 4 hours, and 6 hours post-stimulation.

[4] = test system: LPS-activated neurons in the cNST; experiment: Chemogenetic inhibition of LPS-TRAPed cNST neurons, LPS-evoked cytokines; format: in vivo, mice; design: unit not given here; conditions: LPS-treated but not silenced animals
Method: as §2, §3, §4

TRPA1 vagal neurons = experiment: Calcium imaging of TRPA1 vagal neurons; format: in vivo, mice
Method: as §5, with “Trials were 15 mins long, and consisted of a 180-s baseline (saline), a 180-s cytokine or control stimulus, and a 9-min washout (saline) period. The flow rates were maintained at around 600 μl min-1 throughout the experiment to minimize mechanical responses that may occur during the transition between trials. Cytokines were dissolved in saline at the concentration of 1 μg ml-1. During the entire perfusion session, all of the solutions were maintained at 37° C.” left out
Imaging data was acquired exactly as previously described (Li, M. et al. Nature 610, 722-730, (2022); Tan, H. E. et al. Nature 580, 511-516, (2020)). Neuronal activity was analyzed for significant stimulus-evoked responses as described. […] Z-scores from responders were normalized across stimuli to generate heat maps of normalized fluorescence traces.

lipoteichoic acid [LTA]
Fos induction in the cNST (cNST neurons [1]): robustly activated Fos

C[N+]1([O-])CCN(C2=Nc3cc(Cl)ccc3Nc3ccccc32)CC1 [CNO, clozapine N-oxide]
anti-inflammatory cytokines (IL-10), change on activation [2]: very large increase | pro-inflammatory cytokines, change on activation [2]: dramatic suppression

tumor necrosis factor [TNF-α]
calcium activity in a subset of vagal sensory neurons (vagal sensory neurons): triggered robust activity | number of responding vagal sensory neurons (vagal sensory neurons): 13

Flagellin
Fos induction in the cNST (cNST neurons [1]): robustly activated Fos

lipopolysaccharide [LPS]
Fos expression in the cNST of Myd88−/− mice (cNST neurons [1]; Myd88−/− mice, LPS intraperitoneally, 2 h): largely absent | Fos induction in the cNST (cNST neurons [1]): robustly activated Fos | activation (Fos) of DBH neurons in the cNST (DBH neurons in the cNST): activate DBH neurons | reduction of average cNST response after vagotomy (cNST neurons [3]; LPS 0.5 mg kg-1): ~80% | cNST GCaMP6s response, AUC (area under the curve) (cNST neurons [3]; LPS 0.5 mg kg-1, after bilateral vagotomy): 10.6±6.1 | cNST GCaMP6s response, AUC (area under the curve) (cNST neurons [3]; LPS 0.5 mg kg-1, intact vagus): 52.6±7.2 | cytokine induction in Myd88−/− mice (circulating cytokines; IL-6, IL-1β, TNF-α, IL-10, 2 h after LPS): dramatically reduced | TNFa in the peripheral blood (circulating cytokines; control animals given LPS): 200 pg/mL | direct activation of vagal neurons (vagal sensory neurons; LPS 0.5 mg kg-1): not directly activated | IL-1β level [4]: 200 | IL-10 level [4]: 750

IL-1β: pro-inflammatory cytokine
number of responding vagal sensory neurons (vagal sensory neurons): 8

Profilin
Fos induction in the cNST (cNST neurons [1]): robustly activated Fos

B1: interleukin-4 (protein, UniProt P05112 25-153, looked up)
Interleukin-4: HKCDITLQEIIKTLNSLTEQKTLCTELTVTDIFAASKNTTEKETFCRAATVLRQFYSHHEKDTRCLGATAQQFHRHKQLIRFLKRLDRNLWGLAGLNSCPVKEANQSTLENFLERLKTIMREKYSKCSS
notes: anti-inflammatory cytokine
calcium activity in a subset of vagal sensory neurons (vagal sensory neurons): triggered robust activity

B2: interleukin-10 (protein, UniProt P22301 19-178, looked up)
Interleukin-10: SPGQGTQSENSCTHFPGNLPNMLRDLRDAFSRVKTFFQMKDQLDNLLLKESLLEDFKGYLGCQALSEMIQFYLEEVMPQAENQDPDIKAHVNSLGENLKTLRLRLRRCHRFLPCENKSKAVEQVKNAFNKLQEKGIYKAMSEFDIFINYIEAYMTMKIRN
notes: anti-inflammatory cytokine
Fos induction in the cNST (cNST neurons [1]): induces significant Fos labelling | activation (Fos) of DBH neurons in the cNST (DBH neurons in the cNST): activate DBH neurons | number of responding vagal sensory neurons (vagal sensory neurons): 11/423 | activation of TRPA1-expressing vagal neurons (TRPA1 vagal neurons; GCaMP6s imaging): activated | number of responding TRPA1 neurons (TRPA1 vagal neurons; imaged TRPA1 neurons, IP or perfusion): 27 of 189
